Literature values, collected in PMC9308844, “Development of new copper-64 labeled rhodamine: a potential PET myocardial perfusion imaging agent” (EJNMMI Radiopharmacy and Chemistry, 2022).

Parameters: method as in earlier work
Settings: ref Baranyai et al. [2020]; Clarke et al. 1990; Clarke and Martell [1991a], [b]; Wadas et al. [2010]; Tolmachev et al. [2017]

## O=C([O-])CN1CCN(CC(=O)[O-])CCN(CC(=O)[O-])CC1.[Cu+2] [[Cu^II NOTA]]
  Log K of Cu^II complex: 21.6
